Measured values as given in patent US10508109B2 (priority 2015, dated 2019).
Structures can show the parent of a compound that is named as a salt. Where two headings read alike, the source gives them in different places.

Assays:
SUV39H2 = SUV39H2 (Homo sapiens (Human), UniProt Q9H5I1); conditions: read-out: IC50 (μM) Suv 39H2 assay
CCD-18Co = assay: Cell-based assay, anti-proliferative activity (Cell Counting Kit-8, 72 hours); conditions: Homo sapiens, read-out: IC50 (μM) CCD-18Co
Outline: (§1)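 Seed cells in 96-well plates; add serially diluted inhibitor (1.5625 to 100 micro-M plus vehicle); incubate 72 hours; quantify viable growth by CCK-8 and calculate IC50.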

HCT-116 = assay: as above; conditions: Homo sapiens, read-out: IC50 (μM) HCT-116
Outline: as §1

HFL1 = assay: as above; conditions: Homo sapiens, read-out: IC50 (μM) HFL1
Outline: as §1

PC14 = assay: as above; conditions: Homo sapiens, read-out: IC50 (μM) PC14
Outline: as §1

A549 = assay: as above; conditions: Homo sapiens, read-out: IC50 (μM) A549
Outline: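 Seed cells in 96-well format; add inhibitors; measure growth by CCK-8 at end of exposure; derive IC50.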

[1] = CCD-18Co cells, 72 hours, Cell Counting Kit-8
[2] = HCT-116 cells, 72 hours, Cell Counting Kit-8
[3] = HFL1 cells, 72 hours, Cell Counting Kit-8
[4] = PC-14, PC14 cells, 72 hours, Cell Counting Kit-8
[5] = A549 cells, 72 hours, Cell Counting Kit-8
[6] = CCD-18Co cells, Cell Counting Kit-8, 72 hours
[7] = HCT-116 cells, Cell Counting Kit-8, 72 hours
[8] = HFL1 cells, Cell Counting Kit-8, 72 hours
[9] = PC-14, PC14 cells, Cell Counting Kit-8, 72 hours
[10] = A549 cells, Cell Counting Kit-8, 72 hours

Sequence of SUV39H2 (Q9H5I1 whole entry): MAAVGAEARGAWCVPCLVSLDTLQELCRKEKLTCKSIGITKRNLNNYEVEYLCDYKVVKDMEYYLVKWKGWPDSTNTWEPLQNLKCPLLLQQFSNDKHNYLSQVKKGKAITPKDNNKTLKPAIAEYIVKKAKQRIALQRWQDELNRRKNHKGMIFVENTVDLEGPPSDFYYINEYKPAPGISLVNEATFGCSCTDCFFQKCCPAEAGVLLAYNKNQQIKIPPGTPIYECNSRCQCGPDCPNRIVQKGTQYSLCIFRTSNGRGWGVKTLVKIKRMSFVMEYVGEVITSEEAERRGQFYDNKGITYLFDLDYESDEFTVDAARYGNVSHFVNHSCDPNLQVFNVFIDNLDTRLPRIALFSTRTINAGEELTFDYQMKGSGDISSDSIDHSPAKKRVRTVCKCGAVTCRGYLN

Row | Structure (SMILES) | IC50 (SUV39H2; enzyme assay) | IC50 (CCD-18Co; [1]) | IC50 (HCT-116; [2]) | IC50 (HFL1; [3]) | IC50 (PC14; [4]) | IC50 (A549; [5]) | IC50 (CCD-18Co; [6]) | IC50 (HCT-116; [7]) | IC50 (HFL1; [8]) | IC50 (PC14; [9]) | IC50 (A549; [10]) | IC50 (SUV39H2) | IC50 (CCD-18Co; CCD-18Co, 72 h) | IC50 (HCT-116; HCT-116, 72 h) | IC50 (HFL1; HFL1, 72 h) | IC50 (PC14; PC-14, 72 h) | IC50 (A549; A549, 72 h)
1 | COc1cc(OC)c(-c2cn3ccc(N4CCN(c5nccc(N)n5)CC4)cc3n2)cc1Cl [Example 286, 2-(4-(2-(5-chloro-2,4-dimethoxyphenyl)imidazo[1,2-a]pyridin-7-yl)piperazin-1-yl)-pyrimidin-4-amine] | 0.00881 µM | 0.71 µM | 0.56 µM | 0.7 µM | 0.63 µM | 0.65 µM |  |  |  |  |  |  |  |  |  |  | 
2 | CCCS(=O)(=O)N1CCN(c2ccn3cc(-c4cc(Cl)c(OC)cc4OC)nc3c2)CC1 [Example 170, 2-(5-chloro-2,4-dimethoxyphenyl)-7-[4-(propylsulfonyl)piperazin-1-yl]imidazo[1,2-a]pyridine] | 0.0219 µM |  |  |  |  |  | 2.6 µM | 2.1 µM | 1.9 µM | 1.6 µM | 1.7 µM |  |  |  |  |  | 
3 | COc1cc(OC)c(-c2cn3ccc(N4CCN(C(=O)C5CC5)CC4)cc3n2)cc1Cl [Example 238, (4-(2-(5-chloro-2,4-dimethoxyphenyl)imidazo[1,2-a]pyridine-7-yl)piperazin-1-yl)(cyclopropyl)methanone] | 0.00416 µM | 3 µM | 2.9 µM | 2.4 µM | 1.6 µM | 2.5 µM |  |  |  |  |  |  |  |  |  |  | 
4 | COc1cc(OC)c(-c2cn3ccc(N4CCN(CCO)CC4)cc3n2)cc1Cl [Example 43, 2-(4-(2-(5-chloro-2,4-dimethoxyphenyl)imidazo[1,2-a]pyridine-7-yl)piperazin-1-yl)ethanol dihydrochloride] |  |  |  |  |  |  |  |  |  |  |  | 0.00854 µM | 11 µM | 14 µM | 6.9 µM | 9.8 µM | 14 µM
5 | COc1cc(OC)c(-c2cn3ccc(N4CCN(S(=O)(=O)C5CC5)CC4)cc3n2)cc1Cl [Example 103, 2-(5-chloro-2,4-dimethoxyphenyl)-7-[4-(cyclopropylsulfonyl)piperazin-1-yl]imidazo[1,2-a]pyridine] | 0.0103 µM |  |  |  |  |  | 1.6 µM | 0.55 µM | 0.61 µM | 0.7 µM | 1.3 µM |  |  |  |  |  | 
6 | COc1cc(OC)c(-c2cn3ccc(N4CCC(NS(C)(=O)=O)CC4)nc3n2)cc1Cl [Example 192, N-(1-(2-(5-chloro-2,4-dimethoxyphenyl)imidazo[1,2-a]pyrimidin-7-yl)-piperidin-4-yl)methanesulfonamide] | 0.0148 µM |  |  |  |  |  | 5.3 µM | 10 µM | 5.1 µM | 10 µM | 10 µM |  |  |  |  |  | 
7 | COc1cc(OC)c(-c2cn3ccc(C4=CCN(P(=O)(OC)OC)CC4)cc3n2)cc1Cl [Example 195, dimethyl{4-[2-(5-chloro-2,4-dimethoxyphenyl)imidazo[1,2-a]pyridin-7-yl]-5,6-dihydropyridin-1(2H)-yl}phosphonate] | 0.0375 µM |  |  |  |  |  |  |  |  |  |  |  | 5.5 µM | 0.93 µM | 2.8 µM | 0.51 µM | 0.7 µM
8 | COc1cc(OC)c(-c2cn3ccc(N4CCC(NC(=O)OC(C)(C)C)C4)cc3n2)cc1C#N (stereo not drawn) [Example 71, tert-butyl {1-[2-(5-cyano-2,4-dimethoxyphenyl)imidazo[1,2-a]pyridin-7-yl]pyrrolidin-3-yl}carbamate] | 0.0075 µM |  |  |  |  |  | 3.2 µM | 1.9 µM | 1.6 µM | 2 µM | 2.6 µM |  |  |  |  |  | 
9 | COc1cc(OC)c(-c2cn3ccc(N4CC[C@H](NCc5ccc(F)cc5)C4)cc3n2)cc1Cl [Example 302, (S)-1-(2-(5-chloro-2,4-dimethoxyphenyl)imidazo[1,2-a]pyridin-7-yl)-N-(4-fluorobenzyl)pyrrolidin-3-amine] | 0.0153 µM | 1.1 µM | 0.92 µM | 0.72 µM | 1.4 µM | 1.5 µM |  |  |  |  |  |  |  |  |  |  | 
